Tests used:
retina = conditions: in vivo; cited from earlier work
macular degeneration = conditions: general anti-oxidants; cited from earlier work
chickens = conditions: cited from earlier work
[1] = system: animals such as birds or fish; test: Feeding of F. multivorum cell paste to animals such as birds or fish; assay type: in vivo; conditions: oral, cell paste of F. multivorum cells
From the text: Although this option has not yet been fully evaluated, it is possible that the Flavobacterium multivorum cells themselves, in intact form and possibly even in a viable state, may be suitable for direct ingestion by humans. A substantial number of human foods (including cheese, yogurt, beer, etc.) contain viable or killed-but-intact microbial cells, and there is no known pathogenicity associated with the F. multivorum cells isolated by Applied Food Biotechnology, Inc. They were isolated from a relatively cold artesian waterway, and since they are adapted to living in cold water, they cannot survive or reproduce well at temperatures inside the human body. […] When fed directly in the form of a cell paste to animals such as birds or fish, these cells appear to be well-suited as delivery vehicles for zeaxanthin.

physchem = conditions: dry powder
From the text: After roughly six months of storage in a relatively unprotected state (usually under normal refrigeration with moderately frequent removal; without containing any antioxidants, and without taking any precautions to prevent contact by atmospheric oxygen), a sample of the zeaxanthin preparation was sent for stereoisomeric analysis to Prof.

[2] = di Mascio et al 1989; among known carotenoids; cited from earlier work

CC1=C(/C=C/C(C)=C/C=C/C(C)=C/C=C/C=C(C)/C=C/C=C(C)/C=C/C2=C(C)C(=O)CCC2(C)C)C(C)(C)CCC1=O [Canthaxanthin]
retinal toxicity (retina): has been shown to cause retinal maculopathy

CC1=C(/C=C/C(C)=C/C=C/C(C)=C/CO)C(C)(C)CCC1 [Retinol (Vit. A), Retinol]
benefit in the retina against macular degeneration (macular degeneration): very limited

CC1=C(/C=C/C(C)=C/C=C/C(C)=C/C=C/C=C(C)/C=C/C=C(C)/C=C/C2=C(C)C[C@@H](O)CC2(C)C)C(C)(C)C[C@H](O)C1 [Zeaxanthin, 3,3'-dihydroxy-β-β-carotene]
coloration of chickens (chickens; Flavobacter cells (ATCC 21081, 21588) with their zeaxanthin fed, U.S. Pat. No. 3,891,504): caused suitable coloration
coloring potency relative to lutein (chickens; per-weight basis, chicken skin and egg yolks): 2-3 times
effectiveness in imparting color to animal flesh or chicken yolks relative to lutein (chickens; per-weight basis): several times more effective
absorption and tissue deposition of zeaxanthin [1]: absorbed into the bloodstream and deposited into various tissues at expected and appropriate tissue locations
remaining at 4380 h (physchem): 92%

Cc1c(C)c2c(c(C)c1O)CCC(C)(CCCC(C)CCCC(C)CCCC(C)C)O2 (stereo not drawn) [alpha-Tocopherol]
benefit in the retina against macular degeneration (macular degeneration): very limited

CC(C)=CCC/C(C)=C/C=C/C(C)=C/C=C/C(C)=C/C=C/C=C(C)/C=C/C=C(C)/C=C/C=C(\C)CCC=C(C)C [lycopene]
singlet oxygen quenching [2]: best singlet oxygen quencher of all known carotenoids

CC1=C(/C=C/C(C)=C/C=C/C(C)=C/C=C/C=C(C)/C=C/C=C(C)/C=C/C2=C(C)CCCC2(C)C)C(C)(C)CCC1 [β-Carotene, β-carotene]
benefit in the retina against macular degeneration (macular degeneration): very limited

Source: patent US5747544A, “Method of using pure 3R-3'R stereoisomer of zeaxanthin to treat or prevent retinal degeneration in humans” (priority 1995, dated 1998)
